Measurements: patent US9765074B2, “Inhibitors of the renal outer medullary potassium channel” (Merck Sharp & Dohme Corp., priority 2013, dated 2017)

Biological target: T1, hROMK (hKir1.1) (Homo sapiens, UniProt P48048)
T1 construct: expressed in transfected cells
T1 sequence (P48048 1-391): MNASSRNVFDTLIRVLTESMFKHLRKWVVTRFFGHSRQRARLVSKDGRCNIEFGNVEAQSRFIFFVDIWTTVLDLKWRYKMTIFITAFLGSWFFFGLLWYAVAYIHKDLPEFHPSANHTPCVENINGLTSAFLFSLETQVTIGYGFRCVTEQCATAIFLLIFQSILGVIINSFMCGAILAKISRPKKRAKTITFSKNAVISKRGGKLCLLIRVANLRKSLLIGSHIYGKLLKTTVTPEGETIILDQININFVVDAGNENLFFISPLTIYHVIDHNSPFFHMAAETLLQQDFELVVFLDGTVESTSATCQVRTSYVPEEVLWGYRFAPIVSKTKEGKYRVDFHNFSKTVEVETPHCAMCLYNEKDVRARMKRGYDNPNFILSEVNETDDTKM
Test: Thallium Flux Assay (ROMK channel functional thallium flux, FLIPR-Tetra)
Format: cell-based
Conditions: HEK293 cells stably expressing hROMK (hKir1.1); 30 min compound incubation
Procedure, shortened: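 HEK293 cells stably expressing hKir1.1, loaded with FluxOR dye for 90 min, then preincubated with compound for 30 min at ambient temperature with 0.3 mM ouabain and probenecid. Stimulated with 3 mM thallium/0.3 mM potassium (final); fluorescence read ~10 min. Normalized to 3 μM reference ROMK inhibitor; IC50 from inhibition of flux.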

SMILES	IC50
CC1=C(N2CCC3(CCN(CCc4ccc(-n5cnnn5)nn4)CC3F)C2=O)COC1=O (single isomer, unassigned) [Example 265, 6-fluoro-2-(4-methyl-5-oxo-2,5-dihydrofuran-3-yl)-8-{2-[6-(1H-tetrazol-1-yl)pyridazin-3-yl]ethyl}-2,8-diazaspiro[4.5]decan-1-one]	10 nM
CC1=C(N2CCC3(CCN(CCc4ccc(-n5cnnn5)nn4)CC3F)C2=O)COC1=O (single isomer, unassigned) [Example 266, 6-fluoro-2-(4-methyl-5-oxo-2,5-dihydrofuran-3-yl)-8-{2-[6-(1H-tetrazol-1-yl)pyridazin-3-yl]ethyl}-2,8-diazaspiro[4.5]decan-1-one]	10 nM
CC1=C(N2CCC3(CCN(CCc4nnc(-n5cnnn5)cc4C)CC3F)C2=O)COC1=O (single isomer, unassigned) [Example 267, 6-fluoro-2-(4-methyl-5-oxo-2,5-dihydrofuran-3-yl)-8-{2-[4-methyl-6-(1H-tetrazol-1-yl)pyridazin-3-yl]ethyl}-2,8-diazaspiro[4.5]decan-1-one]	10 nM
CC1=C(N2CCC3(CCN(CCc4nnc(-n5cnnn5)cc4C)CC3F)C2=O)COC1=O (single isomer, unassigned) [Example 268, 6-fluoro-2-(4-methyl-5-oxo-2,5-dihydrofuran-3-yl)-8-{2-[4-methyl-6-(1H-tetrazol-1-yl)pyridazin-3-yl]ethyl}-2,8-diazaspiro[4.5]decan-1-one]	10 nM
CC1=C(N2C=CC3(CCN([C@@H](C)Cc4ccc(-n5cnnn5)nn4)CC3)C2=O)COC1=O (single isomer, unassigned) [Example 272]	10 nM
CC1=C(N2C=CC3(CCN([C@H](C)Cc4ccc(-n5cnnn5)nn4)CC3)C2=O)COC1=O (single isomer, unassigned) [Example 273]	4 nM
CC1=C(N2C=CC3(CCN([C@@H](C)Cc4nnc(-n5cnnn5)cc4C)CC3)C2=O)COC1=O (single isomer, unassigned) [Example 274]	10 nM
CC1=C(N2C=CC3(CCN([C@H](C)Cc4nnc(-n5cnnn5)cc4C)CC3)C2=O)COC1=O (single isomer, unassigned) [Example 275]	4 nM
CO[C@H](CN1CCC2(CC1)C[C@@H](C)N(C1=CC(=O)OC1)C2=O)c1cnc(-n2cnnn2)cn1 (single isomer, unassigned) [Example 286]	60 nM
CC1=C(N2CCC3(CCN(C[C@H](C)c4ccc(-n5cnnn5)nn4)CC3)C2=O)COC1=O (single isomer, unassigned) [Example 290]	90 nM
CC1=C(N2CCC3(CCN(C[C@@H](C)c4ccc(-n5cnnn5)nn4)CC3)C2=O)COC1=O (single isomer, unassigned) [Example 291]	80 nM
CC1=C(N2CCC3(CCN([C@@H](C)Cc4ccc(-n5cnnn5)nn4)CC3)C2=O)COC1=O (single isomer, unassigned) [Example 293]	10 nM
CC1=C(N2CCC3(CCN([C@H](C)Cc4ccc(-n5cnnn5)nn4)CC3)C2=O)COC1=O (single isomer, unassigned) [Example 294]	4 nM
CC1=C(N2CCC3(CCN(C(CO)Cc4ccc(-n5cnnn5)nc4)CC3)C2=O)COC1=O (single isomer, unassigned) [Example 295]	20 nM
CC1=C(N2CCC3(CCN([C@H](CO)Cc4ccc(-n5cnnn5)nc4)CC3)C2=O)COC1=O (single isomer, unassigned) [Example 296]	20 nM
CC1=C(N2CCC3(CCN(C(C)(C)C(O)c4ccc(-n5cnnn5)nc4)CC3)C2=O)COC1=O (single isomer, unassigned) [Example 297]	10 nM
CC1=C(N2CCC3(CCN(C(C)(C)C(O)c4ccc(-n5cnnn5)nc4)CC3)C2=O)COC1=O (single isomer, unassigned) [Example 298]	10 nM
CC1=C(N2CCC3(CCN(C(C)(C)C(O)c4ccc(-n5cnnn5)cn4)CC3)C2=O)COC1=O (single isomer, unassigned) [Example 299]	10 nM
CC1=C(N2CCC3(CCN(C(C)(C)C(O)c4ccc(-n5cnnn5)cn4)CC3)C2=O)COC1=O (single isomer, unassigned) [Example 300]	20 nM
CC1CC2(CCN(C(C)(C)C(O)c3cnc(-n4cnnn4)cn3)CC2)C(=O)N1C1=CC(=O)OC1 (single isomer, unassigned) [Example 301, 8-(1-(5-(1H-tetrazol-1-yl)pyrazin-2-yl)-1-hydroxy-2-methylpropan-2-yl)-3-methyl-2-(5-oxo-2,5-dihydrofuran-3-yl)-2,8-diazaspiro[4.5]decan-1-one]	10 nM
CC1CC2(CCN(C(C)(C)C(O)c3cnc(-n4cnnn4)cn3)CC2)C(=O)N1C1=CC(=O)OC1 (single isomer, unassigned) [Example 302, 8-(1-(5-(1H-tetrazol-1-yl)pyrazin-2-yl)-1-hydroxy-2-methylpropan-2-yl)-3-methyl-2-(5-oxo-2,5-dihydrofuran-3-yl)-2,8-diazaspiro[4.5]decan-1-one]	100 nM
CC1CC2(CCN(C(C)(C)C(O)c3cnc(-n4cnnn4)cn3)CC2)C(=O)N1C1=CC(=O)OC1 (single isomer, unassigned) [Example 303, 8-(1-(5-(1H-tetrazol-1-yl)pyrazin-2-yl)-1-hydroxy-2-methylpropan-2-yl)-3-methyl-2-(5-oxo-2,5-dihydrofuran-3-yl)-2,8-diazaspiro[4.5]decan-1-one]	2000 nM
CC1CC2(CCN(C(C)(C)C(O)c3cnc(-n4cnnn4)cn3)CC2)C(=O)N1C1=CC(=O)OC1 (single isomer, unassigned) [Example 304, 8-(1-(5-(1H-tetrazol-1-yl)pyrazin-2-yl)-1-hydroxy-2-methylpropan-2-yl)-3-methyl-2-(5-oxo-2,5-dihydrofuran-3-yl)-2,8-diazaspiro[4.5]decan-1-one]	910 nM
CC1=C(N2CCC3(CCN(C[C@H](O)c4cnc(-n5cnnn5)cc4C(F)F)CC3)C2=O)COC1=O (stereo in doubt) [Example 147, 8-{2-[4-(difluoromethyl)-6-(1H-tetrazol-1-yl)pyridin-3-yl]-2-hydroxyethyl}-2-(4-methyl-5-oxo-2,5-dihydrofuran-3-yl)-2,8-diazaspiro[4.5]decan-1-one]	40 nM
O=C1C=C(N2CCC3(CCN(C[C@H](O)c4ccc(-n5cnnn5)nc4)CC3)C2=O)CO1 [Example 1, 8-{(2R)-2-Hydroxy-2-[6-(1H-tetrazol-1-yl)pyridin-3-yl]ethyl}-1-oxo-2-(5-oxo-2,5-dihydrofuran-3-yl)-2-aza-8-azoniaspiro[4.5]decane]	10 nM
Cc1nc(-n2cnnn2)ccc1[C@@H](O)CN1CCC2(CC1)CCN(C1=CC(=O)OC1)C2=O [Example 3, 8-{(2R)-2-hydroxy-2-[2-methyl-6-(1H-tetrazol-1-yl)pyridin-3-yl]ethyl}-1-oxo-2-(5-oxo-2,5-dihydrofuran-3-yl)-2-aza-8-azoniaspiro[4.5]decane]	20 nM
Cc1nc(-n2cnnn2)ccc1[C@H](O)CN1CCC2(CC1)CCN(C1=CC(=O)OC1)C2=O [Example 4, 8-{(2S)-2-hydroxy-2-[2-methyl-6-(1H-tetrazol-1-yl)pyridin-3-yl]ethyl}-1-oxo-2-(5-oxo-2,5-dihydrofuran-3-yl)-2-aza-8-azoniaspiro[4.5]decane]	50 nM
